Broadly, the melting point is the temperature of the solid-liquid transition. `CCOP(=O)(NN=C(c1ccc(Cl)cc1)c1ccc(OS(C)(=O)=O)cc1)OCC` came in with a melting point of 90 to 91 °C.
As for `c1ccc(N2CCN(CCCc3cccnc3)CC2)nc1`, the melting point is 51 to 52 °C.
For `COc1ccc(-c2nc(CN3CCOCC3)nc3cc(OC)c(OC)cc23)cc1OC` the value was 148 to 150 °C; for `N#Cc1ccccc1OCCc1c[nH]cn1`, 170 to 171 °C.
For `Cc1ccc(/C=C/c2ccc3nc(C(=O)N[C@@H](Cc4ccc(OCc5ccccc5)cc4)C(=O)O)cn3c2)cc1` the value was 266 to 267 °C; for `Brc1ccc2[nH]c(-c3ccccc3)c(CCN3CCCCC3)c2c1`, 121 to 122 °C; for `COc1cc(C2C3=C(COC3=O)Nc3ccc4ncsc4c32)ccc1O` (stereo not given), 296 to 297 °C.
With `O=[N+]([O-])C(=Cc1ccoc1)C1=NCCN1Cc1ccc(Cl)nc1` the figure was 175 to 176 °C; with `COc1ccc(CN(C)CCc2ccc(NC(=O)c3cccc4c(=O)c5cccc(F)c5[nH]c34)cc2)cc1OC`, 175 °C; with `CCN([C@H]1CC[C@H](c2ccc3[nH]c(=O)oc3c2)CC1)[C@H](C)CCc1ccccc1`, 139 to 158 °C.
`C[C@H](O)CNc1cc(OCc2ccccc2)ccc1C=O`: the melting point was in the range of 68 to 69 °C.
With `C/C(=C(\C#N)C(N)=S)N1CCCN(c2ccc(F)c(Cl)c2)CC1` the figure was 148 to 150 °C; with `O=CN(O)C(CO)CS(=O)(=O)c1ccc(-c2ccc(Cl)cc2)cc1` (stereo not given), 153 to 154 °C; with `Cc1c[nH]c(-c2cnn(-c3c(Cl)cc(C(F)(F)F)cc3Cl)n2)n1`, 217 to 218 °C.
The compound `Oc1ccc(-c2noc(C3CC3)c2-c2ccccc2)cc1` had a melting point of 197 to 200 °C.
In the case of `COc1cc(N)cc(OC)c1-c1ccc(C[C@H](NC(=O)c2c(Cl)cccc2Cl)C(=O)O)cc1`, the melting point fell in the range of 221 to 222 °C.
For `COCC(C)Oc1ccc(CSc2cnn(C(C)(C)C)c(=O)c2Cl)cc1` (stereo not given) the value was 51 to 52 °C.
With `CCCCCCCCCCCCCCCCOC[C@@H]1OCCC[C@H]1O` (relative stereo) the figure was 41.5 to 43 °C; with `CCOC(=O)c1cccc(C2COc3c(ccc(O)c3C)C2)c1` (stereo not given), 143 to 144 °C; with `CC(C)(C)OC(=O)c1cc2cc(Cl)ccc2[nH]1`, 140 to 142 °C.
The compound `Fc1cccc2sc(S)nc12` came in with a melting point of 180 °C.
For `COc1ccccc1Oc1c(NS(=O)(=O)c2ccc(CC(C)C)cc2)nc(-c2ncccn2)nc1OCCOC(N)=O`, the melting point lay within 138 to 140 °C.
Compound `CCC1NC(C(=O)O)Cc2c1[nH]c1ccccc21` (stereo not given) had a melting point of 236 to 237 °C.
For `CCc1cccc(CC)c1NC(=NCc1cccc(CCl)c1)Nc1c(CC)cccc1CC` the value was 83.5 to 86.5 °C; for `CCOC(=O)C1C=NC(C)=C(c2ccccc2)C1=O` (stereo not given), 178 to 180 °C.
With `Cc1cc(C(=O)Nc2nc(-c3ccoc3)c(C(=O)C3CCOCC3)s2)ccn1` the figure was 202 to 204 °C; with `O=c1c2cccnc2c(-c2cccc(Cl)c2)cn1Cc1ccccc1`, 149 to 150 °C; with `COc1nc(Cl)cnc1N(C(=O)OCC(C)C)S(=O)(=O)c1ccccc1-c1ccc(O)cc1`, 175 to 177 °C.
For `CC(C)(C)OC(=O)N1CCC2(Cc3cc4ccccc4n3C2)C1` (stereo not given) the value was 104 to 106 °C.
Take `NC(=NCCN(Cc1ccc(F)cc1)c1ccccn1)NCCCc1c[nH]cn1`: the melting point lay within 60 to 63 °C.
For `O=C(O)c1ccc2c(c1)Sc1ccc([N+](=O)[O-])cc1C=C2` the value was 304 to 306 °C.
`O=S(=O)(CCl)c1ccc(O)c(Br)c1` displayed a melting point of 158 to 160 °C.
As to `COC(=O)COc1ccsc1-c1nsc2ccc(-n3c(=O)cc(C(F)(F)F)n(C)c3=O)cc12`, the melting point was in the range of 73 to 79 °C.
With `CC(=O)OC1CSC(Oc2cc(-c3cncnc3)cnc2Cl)C(OC(C)=O)C1OC(C)=O` (stereo not given) the figure was 72 to 90 °C; with `O=C(C=Cc1ccncc1)c1ccc(F)cc1`, 157 °C; with `COc1cc2c(cc1OC)C(Cc1ccc(NC(C)=O)c(I)c1)N(C(=O)C(F)(F)F)CC2` (stereo not given), 174 to 175 °C.
On to `COc1c(C2CCN(CCCCNC(=O)c3ccc(-c4ccc(Cl)cc4)cn3)CC2)ccc2c1CCCC2`, for which the melting point fell in the range of 103 to 105 °C.
On to `C[C@H](NC(=O)c1c[nH]c2ncc(-c3cn(-c4cc(Cl)ccc4F)cn3)nc12)C(C)(C)C`, for which the melting point was in the range of 337 to 339 °C.
For `COC(=O)CCCC#Cc1cc(Cl)ccc1NS(=O)(=O)c1ccc2c(c1)OCCN2C` the value was 131 to 133 °C; for `COc1ccc(Cn2c(=O)oc(=O)c3cc(F)cnc32)cc1`, 143 °C.
With `CCc1noc(-c2ccc(C)cc2)c1-c1ccc(S(N)(=O)=O)cc1` the figure was 191 °C; with `CN1CC=C(c2c[nH]c3ccc(NC(=O)c4ccc(Cl)cc4)cc23)CC1`, 224 to 226 °C; with `COC(=O)c1cc2cc(OC)c(OC)cc2c(-c2ccnc(-n3c(=O)cc(OCC(=O)OCc4ccccc4)c4ccccc43)c2)c1C(=O)OC`, 186 to 189 °C.
As for `CC(C)c1ccc2nc3ccc(C(=O)O)cn3c(=O)c2c1`, the melting point lay within 280 to 287 °C.
In turn, `CC(=O)c1cc(S(=O)(=O)c2ccccc2)ccc1OCc1ccccc1` registered a melting point of 80.5 to 82.4 °C.
For `CC1CNc2c(ccc(NC3=NCCN3)c2Br)N1` (single isomer, unassigned; (+)), the melting point lay within 203 to 205 °C.
For `c1ccc(Sc2c[nH]c3ccccc23)cc1` the value was 149 to 151 °C; for `CC(C)(C(=O)NO)N(CCC(=O)O)S(=O)(=O)c1ccc(Oc2ccc(F)cc2)cc1`, 162 °C.
`CC(=O)Oc1cc(S(=O)(=O)Oc2ccc(C(=O)c3c(Cc4ccccc4)oc(C)c3C)cc2C2CCCC2)ccc1C(=O)O` yielded a melting point of 55 to 90 °C.
In turn, `CCOc1cc(C)c(CCl)c(C)c1C` yielded a melting point of 63 to 64 °C.
In the case of `O=C(CS(=O)(=O)c1ccccc1)NC1CCN(Cc2ccc(Cl)c(Cl)c2)CC1`, the melting point lay in the range of 97 to 99 °C.
With `CS(=O)(=O)Nc1ccc(OCC2CCN(c3cc(N)ccn3)CC2)cc1` the figure was 213 to 214 °C; with `O=C1CNN(c2cc(Cl)c(C(C(=O)O)c3ccc(Cl)cc3)c(Cl)c2)C(=O)N1` (stereo not given), 194 °C; with `CC(=O)c1ccc(OCCCc2ccccc2)cc1`, 80 to 81 °C.
For `COc1ccc(/C=C2/c3cc(OC)c(OC)cc3CCN2C(=O)C2CC2)cc1OC` the value was 148 to 151 °C.
`CCn1c(=S)c2[nH]c(C(C)C)nc2n(Cc2ccc(OC)c(OC3CCCC3)c2)c1=O`: the melting point was 176 to 177 °C.
With `CC(=O)SCCC(=O)N1[C@@H](c2ccccc2O)SC[C@H]1C(=O)N[C@@H](CCC(=O)O)C(=O)O` the figure was 93 to 98 °C.
`COc1ccc2c(C(=O)O)nn(Cc3ccc(Cl)c(Cl)c3)c(=O)c2c1` showed a melting point of 238 to 240 °C.
For `Clc1nc(-c2ccccc2)nc2c1Cc1ccccc1O2` the value was 168 to 170 °C; for `Cc1oc(-c2ccccc2)nc1COc1ccc(Cc2nc(-c3ccccc3)c(CCC(=O)O)[nH]2)cc1`, 193 to 196 °C.
